In paper PMC6850446, “In vivo inactivation of glycosidases by conduritol B epoxide and cyclophellitol as revealed by activity‐based protein profiling” (The Febs Journal, 2019):
Where two headings read alike, the source gives them in different places.

Assays:
GAA (zebrafish larvae) = biological target: T1, GAA (zebrafish larvae) (Danio rerio, UniProt A0A8M1QKP5); assay: live larvae exposed, residual activity in lysate with 4MU-alpha-D-glucopyranoside; settings: in vivo: concentration in egg water, 5 days at 28.5 °C, assay pH 4.0
T1 construct: endogenous enzyme in larvae, measured in larval lysate; paralogues not distinguished
T1 sequence (A0A8M1QKP5 31-918): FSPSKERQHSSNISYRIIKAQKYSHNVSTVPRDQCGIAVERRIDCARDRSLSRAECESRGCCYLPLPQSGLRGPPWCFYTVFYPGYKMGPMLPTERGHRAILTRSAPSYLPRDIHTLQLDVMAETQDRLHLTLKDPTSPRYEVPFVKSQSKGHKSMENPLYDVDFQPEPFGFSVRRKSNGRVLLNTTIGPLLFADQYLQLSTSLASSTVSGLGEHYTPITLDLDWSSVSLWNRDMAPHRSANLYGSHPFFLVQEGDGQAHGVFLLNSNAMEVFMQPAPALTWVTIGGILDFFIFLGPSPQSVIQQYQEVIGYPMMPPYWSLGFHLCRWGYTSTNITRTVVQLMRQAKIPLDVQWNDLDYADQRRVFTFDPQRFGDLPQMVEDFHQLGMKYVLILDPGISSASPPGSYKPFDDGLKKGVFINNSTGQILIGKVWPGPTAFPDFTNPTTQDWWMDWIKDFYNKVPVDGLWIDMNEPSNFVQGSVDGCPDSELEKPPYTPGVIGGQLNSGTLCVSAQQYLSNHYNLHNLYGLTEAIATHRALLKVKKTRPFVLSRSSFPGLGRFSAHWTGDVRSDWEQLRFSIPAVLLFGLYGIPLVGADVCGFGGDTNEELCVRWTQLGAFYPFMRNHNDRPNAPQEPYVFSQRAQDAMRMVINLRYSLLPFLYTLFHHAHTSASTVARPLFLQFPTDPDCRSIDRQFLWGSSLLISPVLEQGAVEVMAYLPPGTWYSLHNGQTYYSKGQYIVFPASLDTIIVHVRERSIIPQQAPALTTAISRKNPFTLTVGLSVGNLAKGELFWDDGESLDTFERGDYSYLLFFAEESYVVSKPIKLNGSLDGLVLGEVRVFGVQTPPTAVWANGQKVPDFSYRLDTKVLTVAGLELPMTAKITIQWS
Description: live larvae exposed, residual activity in lysate with 4MU-alpha-D-glucopyranoside on GAA (zebrafish larvae)

[1] = biological target: T2, GUSB (lysosomal beta-glucuronidase) (Homo sapiens, UniProt P08236); assay: intact cells treated, residual activity in lysate with 4MU-beta-D-glucuronide; format: cell-based; settings: 24 h treatment of intact HEK293T cells, assay pH 5.0
T2 construct: endogenous enzyme in HEK293T cells (GBA2-expressing line)
T2 sequence (P08236 23-651): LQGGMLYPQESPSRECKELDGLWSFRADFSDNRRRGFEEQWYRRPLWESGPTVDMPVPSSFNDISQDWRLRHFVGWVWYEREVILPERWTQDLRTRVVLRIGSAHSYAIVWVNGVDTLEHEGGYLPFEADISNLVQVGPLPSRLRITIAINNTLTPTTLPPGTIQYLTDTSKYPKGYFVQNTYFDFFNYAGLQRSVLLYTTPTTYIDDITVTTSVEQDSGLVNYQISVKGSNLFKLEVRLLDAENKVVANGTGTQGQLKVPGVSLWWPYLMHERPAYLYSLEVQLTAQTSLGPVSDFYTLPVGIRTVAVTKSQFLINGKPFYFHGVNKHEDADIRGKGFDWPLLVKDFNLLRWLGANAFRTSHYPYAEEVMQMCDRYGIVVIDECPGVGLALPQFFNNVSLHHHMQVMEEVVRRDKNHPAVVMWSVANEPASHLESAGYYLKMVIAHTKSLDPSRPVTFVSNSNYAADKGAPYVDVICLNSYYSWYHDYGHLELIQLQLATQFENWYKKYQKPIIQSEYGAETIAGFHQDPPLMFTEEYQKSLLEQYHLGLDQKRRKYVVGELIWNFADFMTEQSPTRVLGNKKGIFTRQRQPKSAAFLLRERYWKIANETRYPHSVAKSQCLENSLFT

[2] = biological target: T3, GAA (lysosomal alpha-glucosidase) (Homo sapiens, UniProt P10253); assay: intact cells treated, residual activity in lysate with 4MU-alpha-D-glucopyranoside; format: cell-based; settings: 24 h treatment of intact HEK293T cells, assay pH 4.0
T3 construct: endogenous enzyme in HEK293T cells (GBA2-expressing line)
Description: intact cells treated, residual activity in lysate with 4MU-alpha-D-glucopyranoside on GAA (lysosomal alpha-glucosidase)

GBA (HEK293T cells) = biological target: T4, GBA (HEK293T cells) (Homo sapiens, UniProt P04062); assay: intact cells treated, residual activity in lysate with 4MU-glucoside; format: cell-based; settings: covalent, 24 h treatment of intact HEK293T cells, assay pH 5.2 with 25 nM AMP-DNM to block GBA2
T4 construct: gene GBA1; endogenous lysosomal enzyme in HEK293T cells that stably express human GBA2; 58-66 kDa on gel
T4 sequence (P04062 40-536): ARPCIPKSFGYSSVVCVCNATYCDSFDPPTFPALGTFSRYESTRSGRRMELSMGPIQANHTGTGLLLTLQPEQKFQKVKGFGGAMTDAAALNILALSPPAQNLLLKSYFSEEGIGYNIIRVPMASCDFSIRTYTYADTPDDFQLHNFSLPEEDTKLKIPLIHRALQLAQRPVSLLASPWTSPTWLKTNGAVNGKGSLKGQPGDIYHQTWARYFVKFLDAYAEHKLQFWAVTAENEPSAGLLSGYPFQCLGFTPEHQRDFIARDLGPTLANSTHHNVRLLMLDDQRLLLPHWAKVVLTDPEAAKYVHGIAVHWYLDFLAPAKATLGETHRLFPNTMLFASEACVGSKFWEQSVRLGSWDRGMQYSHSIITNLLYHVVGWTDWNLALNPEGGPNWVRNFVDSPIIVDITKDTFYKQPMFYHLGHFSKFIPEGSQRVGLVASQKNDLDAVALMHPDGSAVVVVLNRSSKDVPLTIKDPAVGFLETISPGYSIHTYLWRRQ
Description: intact cells treated, residual activity in lysate with 4MU-glucoside on GBA (HEK293T cells)

[3] = covalent, read-out: CBE / Enz. assay

Row | Compound | IC50 (GAA (zebrafish larvae); [3]) [µM] | IC50 [1, 3] [µM] | IC50 [2, 3] [µM] | IC50 (GBA (HEK293T cells); read-out: CBE / Enz. assay) [µM] | IC50 (GAA (zebrafish larvae); read-out: CP / Enz. assay) [µM] | IC50 ([1]; read-out: apparent IC50) [µM] | IC50 ([2]; read-out: CP / Enz. assay) [µM] | IC50 (GBA (HEK293T cells); read-out: CP / Enz. assay) [µM]
1 | OC1C(O)C(O)C2OC2C1O (centres unmarked) [compound 1, conduritol B epoxide] | 5010 | 607 | 309 | 0.331 | – | – | – | –
2 | OC[C@@H]1[C@@H](O)[C@H](O)[C@@H](O)[C@@H]2O[C@H]12 [compound 2, cyclophellitol] | – | – | – | – | > 100 | > 10 | > 10 | 0.086
